Measured values published in patent publication US20120213789A1, “New Molecular Target for Treatment of Cancer” (priority 2001, published 2012).

Legend:
[1] = tested on: LNCaP Prostate Cell Line; test: Dual label UC28/AnnexinV flow cytometry after SPB treatment; type: cell-based, human; settings: for Total AnnexV / Total UC28C: 72 hours, UC28-GAR-CY5/AnnexV-FITC
Procedure: (§1) Cells were grown to 70-80% confluence at 37° C. and 5% CO2 in T-75 tissue culture plastic flasks. SPB stock solution was added to final concentrations of 0.5, 5.0, 10.0, and 25.0 mM in appropriate fresh media to the cell cultures. Cells were incubated at 37° C. and 5% CO2 for 72 hours. Attached cells were then harvested using a solution of 0.05% trypsin and 0.53 mM EDTA (Invitrogen Corp.). Attached cells were then pooled with any the detached cells and washed with PBS pH 7.2. Cell numbers and percent viability were determined using Trypan blue dye exclusion and a hemacytometer. At the time of their use in an experiment the viability was usually about 85% for untreated cells and a range of about 15-70% for treated cells, with the lower viabilities found at higher SPB concentrations (Thompson C, 1995; Cory et al., 1998; van Engeland et al., 1996).
VO1 Apoptosis Detection Kit contains: (1) Fluorocein-isothiocyante (FITC) conjugated AnnexinV [AnnexinV01] 1 ml (2) Propidium Iodide [Annex-Pi] 2.0 ml (3) 4× Binding Buffer [Annex-B] 20.0 ml. Vendor is CalTag Laboratories, Inc., 1849 Bayshore Boulevard #200 Burlingame, Calif. 94010.
UC28(C) is 2.14 mg/ml rabbit polyclonal aliquot directed against the inventors' UC28 patented biomarker developed by UCor R&D gene discovery program. The Antibody was produced against a twenty amino acid (AA) synthetic peptide from the predicted AA sequence (AA 21-37) UCor, Inc. 840 Research Parkway Oklahoma City, Okla. 73104.
Goat Anti-Rabbit CY5 polyclonal Fluorchrome was used as the secondary conjugate for UC28 C rabbit polyclonal antibody and a background control for UC28 C polyclonal. Vendor is Jackson ImmunoResearch Laboratories, Inc. 872 West Baltimore Pike, P.O. Box 9 West Grove, Pa. 19390.
MsIgG-FITC mouse conjugated-FITC was used for background control for AnnexinV01. Vendor is Becicman Coulter, Inc. Diagnostic Division, 11800 SW 147th Ave. M/S 42-003, P.O. Box 169015, Miami, Floridia 33116-9015.
A Coulter Elite engineered with a triple laser system was used to analyze all samples. Coulter control beads were used to align lasers for the dual label testing of cell samples. Laser alignment was required for both the Argon (488 nm line) laser and HeNe (633 nm line) laser. These alignments were performed prior to all measurements with the Argon laser (488 nm line) using fluorophores for FITC, RPE, PI and the HeNe laser (633 nm line) for the Cy5 fluorophores being used for the experiments described below. The histographs, voltage settings, gates, color compensation, and pressures were established prior to all sample processing. […]
UC28 and Annexin V were co-labeled in the three cell lines to assess the induction of UC28 by SPB and its correlation to the induction of apoptosis. […] It may be noted that in previously published experiments, AnnexinV and PI were run in combination with several prostate cancer cell lines, one of which was LNCaP, but not with C4-2B or MLC-SV40. It was determined that they produced similar dose-response kinetics when exposed to 0.5-25 mM of SPB for 72 hours (Ng et al., 1989). That is, as the dose of SPB increased, so did the membrane perturbation events measured by these two methods.

[2] = tested on: MLC-SV40 immortalized normal cells; test: Dose-response kinetics of UC28 protein expression by flow cytometry; type: cell-based; settings: 0.5 to 25 mM SPB
Procedure: as §1, with “1996). UC28(C) is 2.14 mg/ml rabbit polyclonal aliquot directed against the inventors' UC28 patented biomarker developed by UCor R&D gene discovery program. The Antibody was produced against a […] (AA) synthetic peptide from the predicted AA sequence (AA 21-37) UCor, Inc. 840 Research Parkway Oklahoma City, Okla. 73104. Goat Anti-Rabbit CY5 polyclonal Fluorchrome was used as the secondary conjugate for UC28 C rabbit polyclonal antibody and a background control for UC28 C polyclonal. […]” for “1996).”

O=C([O-])CCCc1ccccc1.[Na+] [SPB, 4-Phenylbutyric Acid, Sodium Salt]
Total AnnexV ([1]; 0.5 mM SPB): 10.6%
Total UC28C ([1]; 0.5 mM SPB): 28.0%
Total AnnexV ([1]; 5.0 mM SPB): 44.7%
Total UC28C ([1]; 5.0 mM SPB): 55.8%
Total AnnexV ([1]; 10 mM SPB): 33.6%
Total UC28C ([1]; 10 mM SPB): 66.4%
Total AnnexV ([1]; 25 mM SPB): 89.2%
Total UC28C ([1]; 25 mM SPB): 67.4%
UC28 up regulation ([1]; SPB, summary of Table 5): up regulated
induction of apoptosis ([1]; SPB, summary of Table 5): induced
UC28 membrane protein expression [2]: do not over express
